Measured values: PubChem BioAssay AID256 (DTP/NCI, 2004)
“And” between values parts separate entries of the source, which are not always exact repeats. Equal values may be shown once. Toxic doses and inconclusive results are not listed.

Tested on: CD2F1 mice, L1210 leukemia ip, survival T/C
Test: NCI In Vivo Anticancer Drug Screen. Data for tumor model L1210 Leukemia (intraperitoneal) in CD2F1 (CDF1) mice
Conditions: higher = longer survival
Procedure, shortened: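 Antitumor effect is scored in animals hosting a serially transplanted tumor. Values compare compound-dosed animals against vehicle-only controls as a simple quotient.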

[1] = endpoint: mean survival time, dose: 100.0 mg/kg/injection, schedule: Q01DX009 (ip), vehicle: saline with Tween-80
[2] = endpoint: mean survival time, dose: 200.0 mg/kg/injection, schedule: Q01DX009 (ip), vehicle: saline with Tween-80
[3] = endpoint: mean survival time, dose: 400.0 mg/kg/injection, schedule: Q01DX009 (ip), vehicle: saline with Tween-80
[4] = endpoint: mean survival time, dose: 100.0 mg/kg/injection, schedule: Q04DX002 (ip), vehicle: saline with Tween-80
[5] = endpoint: mean survival time, dose: 200.0 mg/kg/injection, schedule: Q04DX002 (ip), vehicle: saline with Tween-80

With `c1ccc2c(c1)nnn1c3cnccc3nc21` the T/C (endpoint: mean survival time, dose: 1.56 mg/kg/injection, schedule: Q01DX009 (ip), vehicle: saline with Tween-80) was 101 % of control and 105 % of control, the T/C (endpoint: mean survival time, dose: 3.12 mg/kg/injection, schedule: Q01DX009 (ip), vehicle: saline with Tween-80) was 94 % of control and 100 % of control and the T/C (endpoint: mean survival time, dose: 5.0 mg/kg/injection, schedule: Q01DX001 (ip), vehicle: saline) was 98 % of control. For the same molecule, the T/C (endpoint: mean survival time, dose: 6.25 mg/kg/injection, schedule: Q01DX009 (ip), vehicle: saline with Tween-80) was 97 % of control and 103 % of control, the T/C (endpoint: mean survival time, dose: 10.0 mg/kg/injection, schedule: Q01DX001 (ip), vehicle: saline) was 101 % of control and the T/C (endpoint: mean survival time, dose: 12.5 mg/kg/injection, schedule: Q01DX009 (ip), vehicle: saline with Tween-80) was 101 % of control. For the same molecule, the T/C (endpoint: mean survival time, dose: 20.0 mg/kg/injection, schedule: Q01DX001 (ip), vehicle: saline) was 98 % of control and the T/C (endpoint: mean survival time, dose: 25.0 mg/kg/injection, schedule: Q01DX009 (ip), vehicle: saline with Tween-80) was 103 % of control.

With `CC(C)(c1ccc(O)cc1)c1ccc(O)cc1` the T/C [1] was 102 % of control, the T/C [2] was 104 % of control and the T/C [3] was 100 % of control.

For `Nc1ccc(Cn2ccc3c4c(N)nc(N)nc4ccc32)cc1`, the T/C (endpoint: mean survival time, dose: 1.25 mg/kg/injection, schedule: Q01DX005 (ip), vehicle: saline with Tween-80) was 101 % of control, the T/C (endpoint: mean survival time, dose: 1.25 mg/kg/injection, schedule: Q01DX009 (ip), vehicle: saline with Tween-80) was 101 % of control and 102 % of control and 108 % of control and the T/C (endpoint: mean survival time, dose: 2.5 mg/kg/injection, schedule: Q01DX005 (ip), vehicle: saline with Tween-80) was 111 % of control. The T/C (endpoint: mean survival time, dose: 5.0 mg/kg/injection, schedule: Q01DX005 (ip), vehicle: saline with Tween-80) was 110 % of control, the T/C (endpoint: mean survival time, dose: 10.0 mg/kg/injection, schedule: Q01DX005 (ip), vehicle: saline with Tween-80) was 123 % of control and the T/C (endpoint: mean survival time, dose: 20.0 mg/kg/injection, schedule: Q01DX005 (ip), vehicle: saline with Tween-80) was 106 % of control. The T/C (endpoint: mean survival time, dose: 30.0 mg/kg/injection, schedule: Q01DX005 (ip), vehicle: saline with Tween-80) was 117 % of control, the T/C (endpoint: median survival time, dose: 1.25 mg/kg/injection, schedule: Q01DX009 (ip), vehicle: saline with Tween-80) was 103 % of control and 108 % of control and the T/C (endpoint: median survival time, dose: 2.5 mg/kg/injection, schedule: Q01DX009 (ip), vehicle: saline with Tween-80) was 118 % of control and 103 % of control. For the same molecule, the T/C (endpoint: median survival time, dose: 5.0 mg/kg/injection, schedule: Q01DX009 (ip), vehicle: saline with Tween-80) was 124 % of control and 103 % of control, the T/C (endpoint: median survival time, dose: 10.0 mg/kg/injection, schedule: Q01DX009 (ip), vehicle: saline with Tween-80) was 113 % of control and the T/C (endpoint: median survival time, dose: 20.0 mg/kg/injection, schedule: Q01DX009 (ip), vehicle: saline with Tween-80) was 152 % of control.

In the case of `Nc1nnc(C(F)(F)F)s1`, the T/C (endpoint: mean survival time, dose: 100.0 mg/kg/injection, schedule: Q04DX002 (ip), vehicle: Klucel (hydroxypropylcellulose) (HPC)) is reported as 101 % of control, the T/C (endpoint: mean survival time, dose: 200.0 mg/kg/injection, schedule: Q04DX002 (ip), vehicle: Klucel (hydroxypropylcellulose) (HPC)) is reported as 101 % of control and the T/C (endpoint: mean survival time, dose: 400.0 mg/kg/injection, schedule: Q04DX002 (ip), vehicle: Klucel (hydroxypropylcellulose) (HPC)) is reported as 108 % of control.

In the case of `COc1ccccc1NC(=O)OCC(Cl)(Cl)Cl`, the T/C [4] is reported as 103 % of control, the T/C [5] is reported as 100 % of control and the T/C (endpoint: mean survival time, dose: 400.0 mg/kg/injection, schedule: Q04DX002 (ip), vehicle: saline with Tween-80) is reported as 95 % of control.

For `CC(=O)Oc1ccccc1N(C(C)=O)S(=O)(=O)c1ccc(C)cc1`, the T/C (endpoint: mean survival time, dose: 50.0 mg/kg/injection, schedule: Q04DX003 (ip), vehicle: saline) was 98 % of control, the T/C (endpoint: mean survival time, dose: 100.0 mg/kg/injection, schedule: Q01DX001 (ip), vehicle: saline) was 106 % of control and the T/C (endpoint: mean survival time, dose: 100.0 mg/kg/injection, schedule: Q04DX003 (ip), vehicle: saline) was 101 % of control. The T/C (endpoint: mean survival time, dose: 200.0 mg/kg/injection, schedule: Q01DX001 (ip), vehicle: saline) was 108 % of control, the T/C (endpoint: mean survival time, dose: 200.0 mg/kg/injection, schedule: Q04DX003 (ip), vehicle: saline) was 101 % of control and the T/C (endpoint: mean survival time, dose: 400.0 mg/kg/injection, schedule: Q01DX001 (ip), vehicle: saline) was 100 % of control.

`NCCN1CCc2ccccc2C1` was tested, and the T/C (endpoint: mean survival time, dose: 6.25 mg/kg/injection, schedule: Q04DX003 (ip), vehicle: saline) was 101 % of control, the T/C (endpoint: mean survival time, dose: 12.5 mg/kg/injection, schedule: Q04DX003 (ip), vehicle: saline) was 106 % of control and the T/C (endpoint: mean survival time, dose: 25.0 mg/kg/injection, schedule: Q04DX003 (ip), vehicle: saline) was 101 % of control.

For `COc1ccc(Cc2ccc(OC)c(OC)c2)cc1OC`, the T/C (endpoint: median survival time, dose: 25.0 mg/kg/injection, schedule: Q01DX005 (ip), vehicle: saline with Tween-80) was 96 % of control, the T/C (endpoint: median survival time, dose: 25.0 mg/kg/injection, schedule: Q04DX003 (ip), vehicle: saline) was 100 % of control and the T/C (endpoint: median survival time, dose: 50.0 mg/kg/injection, schedule: Q01DX005 (ip), vehicle: saline with Tween-80) was 98 % of control. The T/C (endpoint: median survival time, dose: 50.0 mg/kg/injection, schedule: Q04DX003 (ip), vehicle: saline) was 100 % of control, the T/C (endpoint: median survival time, dose: 100.0 mg/kg/injection, schedule: Q01DX005 (ip), vehicle: saline with Tween-80) was 98 % of control and the T/C (endpoint: median survival time, dose: 100.0 mg/kg/injection, schedule: Q04DX003 (ip), vehicle: saline) was 100 % of control. For the same molecule, the T/C (endpoint: median survival time, dose: 200.0 mg/kg/injection, schedule: Q01DX005 (ip), vehicle: saline with Tween-80) was 97 % of control, the T/C (endpoint: median survival time, dose: 200.0 mg/kg/injection, schedule: Q04DX003 (ip), vehicle: saline) was 106 % of control and the T/C (endpoint: median survival time, dose: 400.0 mg/kg/injection, schedule: Q01DX005 (ip), vehicle: saline with Tween-80) was 95 % of control. For the same molecule, the T/C (endpoint: median survival time, dose: 400.0 mg/kg/injection, schedule: Q04DX003 (ip), vehicle: saline) was 100 % of control.

`Nc1ncnc2nc(C(O)C(O)C(O)CO)[nH]c12` (configuration not stated) was tested, and the T/C (endpoint: median survival time, dose: 12.5 mg/kg/injection, schedule: Q01DX005 (ip), vehicle: distilled water + Tween-80) was 102 % of control, the T/C (endpoint: median survival time, dose: 25.0 mg/kg/injection, schedule: Q01DX005 (ip), vehicle: distilled water + Tween-80) was 96 % of control and the T/C (endpoint: median survival time, dose: 50.0 mg/kg/injection, schedule: Q01DX005 (ip), vehicle: distilled water + Tween-80) was 98 % of control. The T/C (endpoint: median survival time, dose: 100.0 mg/kg/injection, schedule: Q01DX005 (ip), vehicle: distilled water + Tween-80) was 98 % of control and the T/C (endpoint: median survival time, dose: 200.0 mg/kg/injection, schedule: Q01DX005 (ip), vehicle: distilled water + Tween-80) was 106 % of control.

With `Cc1cc(=O)oc2cc(OC(=O)C(CCCCN)NC(=O)OCc3ccccc3)ccc12` (configuration not stated) the T/C (endpoint: mean survival time, dose: 12.5 mg/kg/injection, schedule: Q01DX009 (ip), vehicle: other) was 107 % of control, the T/C (endpoint: mean survival time, dose: 25.0 mg/kg/injection, schedule: Q01DX009 (ip), vehicle: other) was 106 % of control and the T/C (endpoint: mean survival time, dose: 50.0 mg/kg/injection, schedule: Q01DX009 (ip), vehicle: other) was 107 % of control. For the same molecule, the T/C (endpoint: mean survival time, dose: 100.0 mg/kg/injection, schedule: Q01DX009 (ip), vehicle: other) was 101 % of control.

For `NNC(=O)c1ccc(N)cc1`, the T/C (endpoint: mean survival time, dose: 100.0 mg/kg/injection, schedule: Q04DX003 (ip), vehicle: Klucel (hydroxypropylcellulose) (HPC)) was 95 % of control.

With `NNC(=O)CCCO` the T/C (endpoint: mean survival time, dose: 100.0 mg/kg/injection, schedule: Q01DX009 (ip), vehicle: saline) was 102 % of control, the T/C (endpoint: mean survival time, dose: 200.0 mg/kg/injection, schedule: Q01DX009 (ip), vehicle: saline) was 101 % of control and the T/C (endpoint: mean survival time, dose: 400.0 mg/kg/injection, schedule: Q01DX009 (ip), vehicle: saline) was 102 % of control.

With `CCCCCCCCCCCCCCCCCCC#N` the T/C [1] was 100 % of control, the T/C (endpoint: mean survival time, dose: 100.0 mg/kg/injection, schedule: Q04DX003 (ip), vehicle: saline with Tween-80) was 92 % of control and the T/C [2] was 96 % of control. The T/C (endpoint: mean survival time, dose: 200.0 mg/kg/injection, schedule: Q04DX003 (ip), vehicle: saline with Tween-80) was 98 % of control, the T/C [3] was 93 % of control and the T/C (endpoint: mean survival time, dose: 400.0 mg/kg/injection, schedule: Q04DX003 (ip), vehicle: saline with Tween-80) was 95 % of control.

For `Nc1ccc2c(c1)C(=O)OC2(C(F)(F)F)C(F)(F)F`, the T/C (endpoint: mean survival time, dose: 100.0 mg/kg/injection, schedule: Q01DX001 (ip), vehicle: saline with Tween-80) was 104 % of control, the T/C (endpoint: mean survival time, dose: 200.0 mg/kg/injection, schedule: Q01DX001 (ip), vehicle: saline with Tween-80) was 101 % of control and the T/C (endpoint: mean survival time, dose: 400.0 mg/kg/injection, schedule: Q01DX001 (ip), vehicle: saline with Tween-80) was 102 % of control.

In the case of `CCCCCCCC(=O)Nc1cc(C(F)(F)F)ccc1Cl`, the T/C [1] is reported as 93 % of control, the T/C [2] is reported as 96 % of control and the T/C [3] is reported as 94 % of control.

For `CC(C)NC(=O)C1CC2c3cccc4c3C(CN4)CC2N(C)C1` (configuration not stated), the T/C (endpoint: mean survival time, dose: 12.5 mg/kg/injection, schedule: Q04DX002 (ip), vehicle: saline with Tween-80) was 98 % of control, the T/C (endpoint: mean survival time, dose: 25.0 mg/kg/injection, schedule: Q04DX002 (ip), vehicle: saline with Tween-80) was 95 % of control and the T/C (endpoint: mean survival time, dose: 50.0 mg/kg/injection, schedule: Q04DX002 (ip), vehicle: saline with Tween-80) was 98 % of control.

With `O=C(Nc1ccc(Oc2ccc(Cl)c(Cl)c2)c(Cl)c1)Nc1cc(Cl)c(Cl)cc1S(=O)(=O)O` the T/C (endpoint: mean survival time, dose: 100.0 mg/kg/injection, schedule: Q01DX001 (ip), vehicle: saline sonified) was 96 % of control, the T/C [1] was 97 % of control and the T/C (endpoint: mean survival time, dose: 200.0 mg/kg/injection, schedule: Q01DX001 (ip), vehicle: saline sonified) was 93 % of control. The T/C (endpoint: mean survival time, dose: 400.0 mg/kg/injection, schedule: Q01DX001 (ip), vehicle: saline sonified) was 96 % of control.

With `NC(=O)COc1ccc(Br)cc1` the T/C [4] was 102 % of control and the T/C [5] was 98 % of control.
